In US20030199671A1, “Binding molecules for Fc-region polypeptides” (priority 2001, published 2003):
Where two headings read alike, the source gives them in different places. Positions of bridges follow the written chain, without caps; N, C: chain ends. Residues, ends and D or L forms follow the SMILES beside them.

Assays:
IgG4 = IgG4 (Homo sapiens, UniProt P01861); type: binding; set-up: all human subtypes derived from myeloma patients; purchased Calbiochem 400126; host or cells: myeloma patients; conditions: Table 9; immobilized peptide, 5.0 mg/ml resin load
Outline: (§1)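 Read-out is A280 of unbound IgG (1.4 mg/ml extinction coefficient), with percent bound derived against non-filtered or negative controls. Targets were incubated with immobilized peptides in PBST or TBST for 1-1.5 h at room temperature. Hydrolyzed Sepharose and immobilized Protein A serve as negative and positive controls.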

goat IgG = type: binding; conditions: Table 11; unfractionated IgG
Outline: (§2)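 Species specificity was assessed by static binding of unfractionated IgG to peptide resin in pH 7.2 phosphate or pH 7.5 Tris buffer with 0.01% Tween 20. Bound fraction was calculated from A280 of unbound target.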

human IgG1 = biological target: T1, human IgG1 (Homo sapiens, UniProt P01857); type: binding; conditions: Table 9; immobilized peptide, 5.0 mg/ml resin load
T1 construct: all human subtypes derived from myeloma patients; purchased Calbiochem 400120; host or cells: myeloma patients
Outline: (§3)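 Static binding, peptide resin + IgG, 1-1.5 h RT with shaking, PBST pH 7.2 or TBST pH 7.5. Flow-through read at A280 vs buffer blank; % bound = control minus unbound. Elution at pH 8.5 bicarbonate and/or pH 4.0 citrate, 30-60 min.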

human IgG = type: binding; conditions: Table 11; unfractionated IgG
Outline: as §2

mouse IgG = type: binding; conditions: Table 11; unfractionated IgG
Outline: as §2

human IgG2 = biological target: T2, human IgG2 (Homo sapiens, UniProt P01859); type: binding; conditions: Table 9; immobilized peptide, 5.0 mg/ml resin load
T2 construct: all human subtypes derived from myeloma patients; purchased Calbiochem 400122; host or cells: myeloma patients
Outline: as §1

bovine IgG = type: binding; conditions: Table 11; unfractionated IgG
Outline: as §2

IgG3 = IgG3 (Homo sapiens, UniProt P01860); type: binding; set-up: all human subtypes derived from myeloma patients; purchased Calbiochem 400124; host or cells: myeloma patients; conditions: Table 9; immobilized peptide, 5.0 mg/ml resin load
Outline: as §3

human plasma IgG2 = biological target: T3, human plasma IgG2 (Homo sapiens, UniProt P01859); experiment: Fluorescence anisotropy binding, Oregon Green labeled peptide
T3 construct: the individual human plasma IgG isoforms: IgG1, IgG2, IgG3, or IgG4; purchased Calbiochem; host or cells: human plasma
Protocol: (§4) Peptides were synthesized by BACHEM and then Oregon Green labeled and HPLC purified. Binding studies were performed using human plasma IgG isoforms: IgG1, IgG2, IgG3, and IgG4, obtained from Calbiochem.
(§5) Binding studies were carried out at either pH 4.0, 7.5, or 9.5, with or without salt in the following buffers:
(§6) 2) 10 mM Sodium Citrate, 500 mM Sodium Chloride, 0.01% Tween 20, pH 4.0;
(§7) 4) […], 500 mM Sodium Chloride, 0.01% Tween 20, pH 7.5;
(§8) 5) 10 mM Sodium Bicarbonate, 0.01% Tween 20, pH 9.5;
(§9) 6) 10 mM Sodium Bicarbonate, 500 mM Sodium Chloride, 0.01% Tween 20, pH 9.5; or […]

human plasma IgG4 = biological target: T4, human plasma IgG4 (Homo sapiens, UniProt P01861); experiment: as above
T4 construct: the individual human plasma IgG isoforms: IgG1, IgG2, IgG3, or IgG4; purchased Calbiochem; host or cells: human plasma
Protocol: as §4, §5, §6, §7, §8, §9

human plasma IgG1 = biological target: T5, human plasma IgG1 (Homo sapiens, UniProt P01857); experiment: as above
T5 construct: the individual human plasma IgG isoforms: IgG1, IgG2, IgG3, or IgG4; purchased Calbiochem; host or cells: human plasma
Protocol: as §4, §5, §6, §7, §8, §9

T3 sequence (P01859 1-326 isoform P01859-1): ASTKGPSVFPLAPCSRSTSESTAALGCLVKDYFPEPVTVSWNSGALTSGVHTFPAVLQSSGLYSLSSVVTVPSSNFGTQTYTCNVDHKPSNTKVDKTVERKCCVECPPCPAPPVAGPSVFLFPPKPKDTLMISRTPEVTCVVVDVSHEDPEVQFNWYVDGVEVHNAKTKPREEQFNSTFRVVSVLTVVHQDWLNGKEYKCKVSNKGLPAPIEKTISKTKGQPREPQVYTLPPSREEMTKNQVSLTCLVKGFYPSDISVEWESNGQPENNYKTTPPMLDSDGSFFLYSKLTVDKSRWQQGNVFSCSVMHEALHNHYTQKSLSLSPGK
T4 sequence (P01861 1-327 isoform P01861-1): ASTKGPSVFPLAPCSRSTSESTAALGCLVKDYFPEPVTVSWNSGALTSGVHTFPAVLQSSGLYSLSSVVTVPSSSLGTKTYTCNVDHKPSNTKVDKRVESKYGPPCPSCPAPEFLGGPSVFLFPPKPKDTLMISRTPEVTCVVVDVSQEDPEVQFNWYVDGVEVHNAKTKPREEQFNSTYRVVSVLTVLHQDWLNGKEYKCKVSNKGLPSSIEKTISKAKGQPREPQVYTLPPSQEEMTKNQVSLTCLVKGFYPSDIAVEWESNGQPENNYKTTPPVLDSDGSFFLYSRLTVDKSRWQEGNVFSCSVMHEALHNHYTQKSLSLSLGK
T5 sequence (P01857 1-330 isoform P01857-1): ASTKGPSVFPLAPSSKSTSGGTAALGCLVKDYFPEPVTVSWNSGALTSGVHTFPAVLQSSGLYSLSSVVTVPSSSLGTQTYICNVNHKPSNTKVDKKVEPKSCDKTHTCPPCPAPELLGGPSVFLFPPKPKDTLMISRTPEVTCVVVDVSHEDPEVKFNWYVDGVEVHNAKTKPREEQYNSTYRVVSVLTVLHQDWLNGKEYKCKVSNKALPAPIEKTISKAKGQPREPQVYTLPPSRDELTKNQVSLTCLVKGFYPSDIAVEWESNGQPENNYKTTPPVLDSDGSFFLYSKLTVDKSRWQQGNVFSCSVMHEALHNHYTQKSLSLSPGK
T2 sequence (P01859 1-326 isoform P01859-1): as the sequence (P01859 1-326 isoform P01859-1) above
IgG3, sequence (P01860 1-377 isoform P01860-1): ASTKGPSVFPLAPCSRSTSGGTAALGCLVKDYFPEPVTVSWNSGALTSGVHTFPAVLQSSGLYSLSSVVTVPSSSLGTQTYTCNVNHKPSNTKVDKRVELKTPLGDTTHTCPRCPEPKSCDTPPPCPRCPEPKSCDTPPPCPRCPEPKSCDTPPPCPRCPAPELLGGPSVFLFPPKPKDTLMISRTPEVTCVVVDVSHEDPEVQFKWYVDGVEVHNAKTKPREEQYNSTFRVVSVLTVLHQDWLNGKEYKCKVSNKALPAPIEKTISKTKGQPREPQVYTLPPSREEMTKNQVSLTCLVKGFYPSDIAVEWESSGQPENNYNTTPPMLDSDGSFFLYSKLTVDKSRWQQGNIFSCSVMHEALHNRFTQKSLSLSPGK
IgG4, sequence (P01861 1-327 isoform P01861-1): as the sequence (P01861 1-327 isoform P01861-1) above
T1 sequence (P01857 1-330 isoform P01857-1): as the sequence (P01857 1-330 isoform P01857-1) above

Compound: CC(=O)N[C@@H](C)C(=O)NCC(=O)N1CCC[C@H]1C(=O)N[C@@H](Cc1c[nH]cn1)C(=O)N[C@@H](CC(N)=O)C(=O)N[C@H]1CSSC[C@@H](C(=O)N[C@@H](CCCCN)C(=O)N[C@@H](Cc2c[nH]c3ccccc23)C(=O)N[C@@H](Cc2ccccc2)C(=O)N2CCC[C@H]2C(=O)NCC(=O)N2CCC[C@H]2C(=O)N[C@@H](CCC(=O)O)C(=O)NCC(=O)NCC(=O)NCC(=O)N[C@@H](CCCCN)C(N)=O)NC(=O)[C@H](Cc2ccc(O)cc2)NC(=O)[C@H](Cc2c[nH]c3ccccc23)NC(=O)[C@H](Cc2ccc(O)cc2)NC(=O)[C@H](Cc2c[nH]cn2)NC(=O)[C@H](CC(=O)O)NC(=O)[C@H](CC(=O)O)NC1=O [DX389] (Ac-AGPHNCDDHYWYCKWFPGPEGGGK-NH2; disulfide 6-13 (inferred))
- % IgG Capture - Batch Binding, Human IgG4 (IgG4): 3%
- % IgG Capture - Batch Binding, Goat IgG (goat IgG): 0%
- % IgG Capture - Batch Binding, Human IgG1 (human IgG1): 4%
- % IgG Capture - Batch Binding, Human IgG (human IgG): 4%
- % IgG Capture - Batch Binding, Mouse IgG (mouse IgG): 0%
- % IgG Capture - Batch Binding, Human IgG2 (human IgG2): 11%
- % IgG Capture - Batch Binding, Bovine IgG (bovine IgG): 0%
- % IgG Capture - Batch Binding, Human IgG3 (IgG3): 26%
- Kd (human plasma IgG2; 10 nM Tris-HCl, 500 mM Sodium Chloride, pH 7.5, read-out: KD (μM) IgG2 pH 7.5 + salt): > 10 µM
- Kd (human plasma IgG2; 10 mM Sodium Bicarbonate, 500 mM Sodium Chloride, pH 9.5, read-out: KD (μM) IgG2 pH 9.5 + salt): > 10 µM
- Kd (human plasma IgG2; 10 mM Sodium Bicarbonate, pH 9.5, read-out: KD (μM) IgG2 pH 9.5 − salt): > 10 µM
- Kd (human plasma IgG2; 10 mM Sodium Citrate, 500 mM Sodium Chloride, pH 4.0, read-out: KD (μM) IgG2 pH 4.0 + salt): > 10 µM
- Kd (human plasma IgG2; 10 mM Sodium Citrate, pH 4.0, read-out: KD (μM) IgG2 pH 4.0 − salt): > 10 µM
- Kd (human plasma IgG2; 10 mM Tris-HCl, pH 7.5, read-out: KD (μM) IgG2 pH 7.5 − salt): > 10 µM
- Kd (human plasma IgG2; TBS, 0.01% Tween 20, pH 7.5, read-out: KD (μM) IgG2 TBS): > 10 µM
- Kd (human plasma IgG4; 10 nM Tris-HCl, 500 mM Sodium Chloride, pH 7.5, read-out: KD (μM) IgG4 pH 7.5 + salt): > 10 µM
- Kd (human plasma IgG4; 10 mM Sodium Bicarbonate, 500 mM Sodium Chloride, pH 9.5, read-out: KD (μM) IgG4 pH 9.5 + salt): > 10 µM
- Kd (human plasma IgG4; 10 mM Sodium Bicarbonate, pH 9.5, read-out: KD (μM) IgG4 pH 9.5 − salt): > 10 µM
- Kd (human plasma IgG4; 10 mM Sodium Citrate, 500 mM Sodium Chloride, pH 4.0, read-out: KD (μM) IgG4 pH 4.0 + salt): > 10 µM
- Kd (human plasma IgG4; 10 mM Sodium Citrate, pH 4.0, read-out: KD (μM) IgG4 pH 4.0 − salt): > 10 µM
- Kd (human plasma IgG4; 10 mM Tris-HCl, pH 7.5, read-out: KD (μM) IgG4 pH 7.5 − salt): > 10 µM
- Kd (human plasma IgG4; TBS, 0.01% Tween 20, pH 7.5, read-out: KD (μM) IgG4 TBS): > 10 µM
- Kd (human plasma IgG1; 10 nM Tris-HCl, 500 mM Sodium Chloride, pH 7.5, read-out: KD (μM) IgG1 pH 7.5 + salt): > 10 µM
- Kd (human plasma IgG1; 10 mM Sodium Bicarbonate, 500 mM Sodium Chloride, pH 9.5, read-out: KD (μM) IgG1 pH 9.5 + salt): > 10 µM
- Kd (human plasma IgG1; 10 mM Sodium Bicarbonate, pH 9.5, read-out: KD (μM) IgG1 pH 9.5 − salt): > 10 µM
- Kd (human plasma IgG1; 10 mM Sodium Citrate, 500 mM Sodium Chloride, pH 4.0, read-out: KD (μM) IgG1 pH 4.0 + salt): > 10 µM
- Kd (human plasma IgG1; 10 mM Sodium Citrate, pH 4.0, read-out: KD (μM) IgG1 pH 4.0 − salt): > 10 µM
- Kd (human plasma IgG1; 10 mM Tris-HCl, pH 7.5, read-out: KD (μM) IgG1 pH 7.5 − salt): > 10 µM
- Kd (human plasma IgG1; TBS, 0.01% Tween 20, pH 7.5, read-out: KD (μM) IgG1 TBS): > 10 µM
